In patent US20120029187A1, “HALOALKYLSULFONANILIDE DERIVATIVE” (Nissan Chemical Industries, Ltd., priority 2009, published 2012):

Key:
Assay type in all cases: in vivo
[1] = system: bulrush; experiment: Test Example 1: herbicidal effects in preemergence treatment under submerged conditions; conditions: dose 2.52 g/a
In short: (§1)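 Alluvial soil was flooded to 4 cm, sown with barnyardgrass, bulrush and ducksalad, and planted with 2.5-leaf rice seedlings. On the seeding day, water-diluted emulsifiable concentrates were applied to the water surface at set doses (g/a). After three weeks in a 25 to 30° C. greenhouse, mortality was scored 0–5.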

[2] = system: ducksalad; experiment: as above; conditions: dose 2.52 g/a
In short: as §1

[3] = system: barnyardgrass; experiment: as above; conditions: dose 2.52 g/a
In short: as §1

[4] = system: common lambsquater; experiment: Test Example 4: herbicidal effect in foliage treatment; conditions: dose 6.3 g/a, three weeks after application
In short: (§2)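 Foliar spray, post-emergence: 14-day-old greenhouse plants (25–30° C, diluvial soil) treated with water-diluted EC at set g/a doses; visual herbicidal score at 3 wk post-application.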

[5] = system: common ragweed; experiment: as above; conditions: dose 6.3 g/a, three weeks after application
In short: as §2

[6] = system: Italian ryegrass; experiment: as above; conditions: dose 6.3 g/a, three weeks after application
In short: as §2

[7] = system: wild oat; experiment: as above; conditions: dose 6.3 g/a, three weeks after application
In short: as §2

[8] = system: water foxtail; experiment: as above; conditions: dose 6.3 g/a, three weeks after application
In short: as §2

[9] = system: common chickweed; experiment: as above; conditions: dose 6.3 g/a, three weeks after application
In short: as §2

[10] = system: redroot pigweed; experiment: as above; conditions: dose 6.3 g/a, three weeks after application
In short: as §2

[11] = system: giant foxtail; experiment: as above; conditions: dose 6.3 g/a, three weeks after application
In short: as §2

[12] = system: beadstraw; experiment: as above; conditions: dose 6.3 g/a, three weeks after application
In short: as §2

[13] = system: large crabgrass; experiment: as above; conditions: dose 6.3 g/a, three weeks after application
In short: as §2

[14] = system: barnyardgrass; experiment: as above; conditions: dose 6.3 g/a, three weeks after application
In short: as §2

[15] = system: transplanted rice; experiment: Test Example 1: preemergence treatment under submerged conditions, effect on crop; conditions: dose 2.52 g/a
In short: as §1

[16] = system: bulrush; experiment: Test Example 2: herbicidal effects during the vegetation period under submerged conditions; conditions: treatment during the vegetation period under submerged conditions; dose 2.52 g/a
In short: (§3)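 Barnyardgrass, bulrush and ducksalad were co-sown in alluvial soil flooded to 4 cm and grown in a greenhouse at 25 to 30° C. At the 1- or 2-leaf stage, water-diluted emulsifiable concentrates went onto the water surface at set doses (g/a). Herbicidal effect was scored three weeks later on a graded scale.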

[17] = system: ducksalad; experiment: as above; conditions: treatment during the vegetation period under submerged conditions; dose 2.52 g/a
In short: as §3

[18] = system: barnyardgrass; experiment: as above; conditions: treatment during the vegetation period under submerged conditions; dose 2.52 g/a
In short: as §3

[19] = system: common lambsquater; experiment: Test Example 3: herbicidal effects in soil treatment; conditions: dose 6.3 g/a
In short: (§4)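 Seeds were sown in sterilized diluvial soil and covered with about 1.5 cm of soil. Compounds, formulated as emulsifiable concentrates and diluted with water, were sprayed evenly over the soil surface at set doses in g/a. Herbicidal effect was scored on a rating scale three weeks later.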

[20] = system: common ragweed; experiment: as above; conditions: dose 6.3 g/a
In short: as §4

[21] = system: Italian ryegrass; experiment: as above; conditions: dose 6.3 g/a
In short: as §4

[22] = system: wild oat; experiment: as above; conditions: dose 6.3 g/a
In short: as §4

[23] = system: water foxtail; experiment: as above; conditions: dose 6.3 g/a
In short: as §4

[24] = system: common chickweed; experiment: as above; conditions: dose 6.3 g/a
In short: as §4

[25] = system: giant foxtail; experiment: as above; conditions: dose 6.3 g/a
In short: as §4

[26] = system: large crabgrass; experiment: as above; conditions: dose 6.3 g/a
In short: as §4

[27] = system: barnyardgrass; experiment: as above; conditions: dose 6.3 g/a
In short: as §4

[28] = system: redroot pigweed; experiment: as above; conditions: dose 6.3 g/a
In short: as §4

Row | Structure (SMILES) | B: bulrush, herbicidal effect (evaluation scale 0-5) [1] | C: ducksalad, herbicidal effect (evaluation scale 0-5) [2] | A: barnyardgrass, herbicidal effect (evaluation scale 0-5) [3] | L: common lambsquater, herbicidal effect [4] | J: common ragweed, herbicidal effect [5] | H: Italian ryegrass, herbicidal effect [6] | F: wild oat, herbicidal effect [7] | G: water foxtail, herbicidal effect [8] | N: common chickweed, herbicidal effect [9] | K: redroot pigweed, herbicidal effect [10] | E: giant foxtail, herbicidal effect [11] | O: beadstraw, herbicidal effect [12] | D: large crabgrass, herbicidal effect [13] | A: barnyardgrass, herbicidal effect [14] | a: transplanted rice, effect on crop (evaluation scale 0-5) [15] | B: bulrush, herbicidal effect (evaluation scale 0-5) [16] | C: ducksalad, herbicidal effect (evaluation scale 0-5) [17] | A: barnyardgrass, herbicidal effect (evaluation scale 0-5) [18] | L: common lambsquater, herbicidal effect (evaluation scale 0-5) [19] | J: common ragweed, herbicidal effect (evaluation scale 0-5) [20] | other results
1 | CC1(C)CC(=O)N(Cc2ccccc2N(C(=O)c2ccccc2)S(=O)(=O)C(F)(F)F)CO1 [II-21] | 5 (mortality of 90% or above (nearly complete death)) | 5 (mortality of 90% or above (nearly complete death)) | 5 (mortality of 90% or above (nearly complete death)) | 4 (mortality of at least 70% and less than 90%) | 5 (mortality of 90% or above (nearly complete death)) | 4 (mortality of at least 70% and less than 90%) | 0 (mortality of less than 5% (almost ineffective)) | 5 (mortality of 90% or above (nearly complete death)) | 4 (mortality of at least 70% and less than 90%) | 2 (mortality of at least 20% and less than 40%) | 4 (mortality of at least 70% and less than 90%) | 4 (mortality of at least 70% and less than 90%) | 4 (mortality of at least 70% and less than 90%) | 5 (mortality of 90% or above (nearly complete death)) | 0 (mortality of less than 5% (almost ineffective)) | 5 (mortality of 90% or above (nearly complete death)) | 5 (mortality of 90% or above (nearly complete death)) | 5 (mortality of 90% or above (nearly complete death)) | 0 (mortality of less than 5% (almost ineffective)) | 5 (mortality of 90% or above (nearly complete death)) | H: Italian ryegrass, herbicidal effect (evaluation scale 0-5) [21]: 5 (mortality of 90% or above (nearly complete death)); F: wild oat, herbicidal effect (evaluation scale 0-5) [22]: 0 (mortality of less than 5% (almost ineffective)); G: water foxtail, herbicidal effect (evaluation scale 0-5) [23]: 5 (mortality of 90% or above (nearly complete death)); N: common chickweed, herbicidal effect (evaluation scale 0-5) [24]: 4 (mortality of at least 70% and less than 90%); E: giant foxtail, herbicidal effect (evaluation scale 0-5) [25]: 3 (mortality of at least 40% and less than 70%); D: large crabgrass, herbicidal effect (evaluation scale 0-5) [26]: 5 (mortality of 90% or above (nearly complete death)); A: barnyardgrass, herbicidal effect (evaluation scale 0-5) [27]: 5 (mortality of 90% or above (nearly complete death))
2 | CCOC(=O)N(c1ccccc1CN1COC(C)CC1=O)S(=O)(=O)C(F)(F)F (centres unmarked) [II-7] | 5 (mortality of 90% or above (nearly complete death)) | 5 (mortality of 90% or above (nearly complete death)) | 5 (mortality of 90% or above (nearly complete death)) | 5 (mortality of 90% or above (nearly complete death)) | 5 (mortality of 90% or above (nearly complete death)) | 3 (mortality of at least 40% and less than 70%) | 0 (mortality of less than 5% (almost ineffective)) | 5 (mortality of 90% or above (nearly complete death)) | 2 (mortality of at least 20% and less than 40%) | 0 (mortality of less than 5% (almost ineffective)) | 5 (mortality of 90% or above (nearly complete death)) | 3 (mortality of at least 40% and less than 70%) | 5 (mortality of 90% or above (nearly complete death)) | 5 (mortality of 90% or above (nearly complete death)) | 0 (mortality of less than 5% (almost ineffective)) | 5 (mortality of 90% or above (nearly complete death)) | 4 (mortality of at least 70% and less than 90%) | 5 (mortality of 90% or above (nearly complete death)) | 5 (mortality of 90% or above (nearly complete death)) | 4 (mortality of at least 70% and less than 90%) | H: Italian ryegrass, herbicidal effect (evaluation scale 0-5) [21]: 2 (mortality of at least 20% and less than 40%); F: wild oat, herbicidal effect (evaluation scale 0-5) [22]: 2 (mortality of at least 20% and less than 40%); G: water foxtail, herbicidal effect (evaluation scale 0-5) [23]: 5 (mortality of 90% or above (nearly complete death)); N: common chickweed, herbicidal effect (evaluation scale 0-5) [24]: 4 (mortality of at least 70% and less than 90%); K: redroot pigweed, herbicidal effect (evaluation scale 0-5) [28]: 0 (mortality of less than 5% (almost ineffective)); E: giant foxtail, herbicidal effect (evaluation scale 0-5) [25]: 5 (mortality of 90% or above (nearly complete death)); D: large crabgrass, herbicidal effect (evaluation scale 0-5) [26]: 5 (mortality of 90% or above (nearly complete death)); A: barnyardgrass, herbicidal effect (evaluation scale 0-5) [27]: 5 (mortality of 90% or above (nearly complete death))
3 | CC(C)COC(=O)N(c1ccccc1CN1COC(C)(C)CC1=O)S(=O)(=O)C(F)(F)F [II-26] | 5 (mortality of 90% or above (nearly complete death)) | 5 (mortality of 90% or above (nearly complete death)) | 5 (mortality of 90% or above (nearly complete death)) | 0 (mortality of less than 5% (almost ineffective)) | 5 (mortality of 90% or above (nearly complete death)) | 3 (mortality of at least 40% and less than 70%) | 0 (mortality of less than 5% (almost ineffective)) | 5 (mortality of 90% or above (nearly complete death)) | 3 (mortality of at least 40% and less than 70%) | 0 (mortality of less than 5% (almost ineffective)) | 4 (mortality of at least 70% and less than 90%) | 4 (mortality of at least 70% and less than 90%) | 4 (mortality of at least 70% and less than 90%) | 4 (mortality of at least 70% and less than 90%) | 0 (mortality of less than 5% (almost ineffective)) | 5 (mortality of 90% or above (nearly complete death)) | 5 (mortality of 90% or above (nearly complete death)) | 5 (mortality of 90% or above (nearly complete death)) | 0 (mortality of less than 5% (almost ineffective)) | 5 (mortality of 90% or above (nearly complete death)) | H: Italian ryegrass, herbicidal effect (evaluation scale 0-5) [21]: 3 (mortality of at least 40% and less than 70%); F: wild oat, herbicidal effect (evaluation scale 0-5) [22]: 0 (mortality of less than 5% (almost ineffective)); G: water foxtail, herbicidal effect (evaluation scale 0-5) [23]: 5 (mortality of 90% or above (nearly complete death)); N: common chickweed, herbicidal effect (evaluation scale 0-5) [24]: 2 (mortality of at least 20% and less than 40%); K: redroot pigweed, herbicidal effect (evaluation scale 0-5) [28]: 0 (mortality of less than 5% (almost ineffective)); E: giant foxtail, herbicidal effect (evaluation scale 0-5) [25]: 4 (mortality of at least 70% and less than 90%); D: large crabgrass, herbicidal effect (evaluation scale 0-5) [26]: 5 (mortality of 90% or above (nearly complete death)); A: barnyardgrass, herbicidal effect (evaluation scale 0-5) [27]: 5 (mortality of 90% or above (nearly complete death))
